Measurements: patent publication US6326378A, “Use of thiadiazolo[4,3-a]pyridine derivatives” (Roche Diagnostics GmbH, priority 1998, dated 2001)
Converted amounts (≈) assume the structure as drawn.

Legend:
Lymphocytes [1] = assay: Lymphocytes, mixed lymphocytes reaction, thymidine incorporation; assay type: cell-based; details: Lymphocyte; stimulus mixed lymphocytes reaction
From the text: (§1) The compound from Example 2b inhibits the activation of various types of leucocytes under different stimuli.

PDE IV = PDE IV inhibition, isolated human enzyme preparations; assay type: biochemical; details: isolated human enzyme preparation
Procedure: (§2) The IC50 values of the compound from Example 2b were determined to be 2×10^-5 mol/l (PDE IV) and 8×10^-5 mol/l (PDE III) on isolated human enzyme preparations.

guinea pigs = assay: Toxicity / tolerability in guinea pigs; assay type: in vivo, guinea pig; details: p.o. and i.p.
From the text: (§3) The behaviour of the dogs was normal.

dogs = assay: Toxicity / tolerability in dogs; assay type: in vivo, dog
From the text: as §3

conscious dogs (beagles) = assay: Effect on heart rate and arterial blood pressure of conscious dogs; assay type: in vivo, dog; details: for DBP / MAP / SBP / HR: 24 mg/kg oral
Procedure: as §3
Effect on heart rate and on arterial blood pressure
of conscious dogs after oral administration of 24 mg/kg of the compound of […]

Basophilic granulocytes = assay: Basophilic granulocytes, anti-IgE antibody, proteinase release; assay type: cell-based; details: stimulus anti-IgE antibody
From the text: as §1

PDE III = PDE III inhibition, isolated human enzyme preparations; assay type: biochemical; details: isolated human enzyme preparation
Procedure: as §2

T Lymphoblasts = assay: T Lymphoblasts, thymidine incorporation; assay type: cell-based; details: no stimulus
From the text: as §1

Peripheral leucocytes = assay: Peripheral leucocytes, LPS, secretion of TNFα; assay type: cell-based; details: Leucocyte; stimulus LPS
From the text: as §1

Phagocytes (PMNs) = assay: Phagocytes (PMNs), zymosan, chemiluminescence; assay type: cell-based; details: stimulus zymosan
From the text: as §1

Lymphocytes [2] = assay: Lymphocytes, ConA, thymidine incorporation; assay type: cell-based; details: Lymphocyte; stimulus ConA
From the text: as §1

mice = assay: Toxicity / tolerability in mice; assay type: in vivo, mouse; details: p.o. and i.p.
From the text: as §3

rats = assay: Toxicity / tolerability in rats; assay type: in vivo, rat
From the text: as §3

[3] = conscious beagles, 24 mg/kg, observation period up to 6 h
[4] = conscious beagles, 24 mg/kg, up to 6 h after administration

c1ccn2c(=Nc3ccncc3)snc2c1 [Example 2b, 3-(4-Pyridinylimino)-3H-[1,2,4]thiadiazolo[4,3-a]pyridine]
IC50 (Lymphocytes [1]): 7.6 µg/mL (≈ 33.3 µM)
IC50 (PDE IV): 20 µM
tolerability (guinea pigs): well tolerated
behaviour of the dogs (dogs; conscious beagles, 24 mg/kg): normal
emetic action (dogs; conscious beagles, 24 mg/kg): not detectable
blood glucose (dogs; [3]): remained unchanged
triglycerides (dogs; [3]): remained unchanged
tolerability (dogs; dogs, p.o.): well tolerated
GPT (dogs; sign of liver damage, conscious beagles, 24 mg/kg, observation period up to 6 h): remained unchanged
arterial blood pressure (conscious dogs (beagles); [4]): remained constant
heart rate (conscious dogs (beagles); [4]): remained constant
DBP (conscious dogs (beagles); edible oil + 2% DMSO, 30 min, preliminary value 66): 63 mmHg
MAP (conscious dogs (beagles); edible oil + 2% DMSO, 30 min, preliminary value 111): 113 mmHg
SBP (conscious dogs (beagles); edible oil + 2% DMSO, 30 min, preliminary value 171): 181 mmHg
DBP (conscious dogs (beagles); edible oil + 2% DMSO, 60 min, preliminary value 66): 57 mmHg
HR (conscious dogs (beagles); edible oil + 2% DMSO, 60 min, preliminary value 79): 82 beats/min
MAP (conscious dogs (beagles); edible oil + 2% DMSO, 60 min, preliminary value 111): 109 mmHg
SBP (conscious dogs (beagles); edible oil + 2% DMSO, 60 min, preliminary value 171): 178 mmHg
DBP (conscious dogs (beagles); edible oil + 2% DMSO, 90 min, preliminary value 66): 58 mmHg
HR (conscious dogs (beagles); edible oil + 2% DMSO, 90 min, preliminary value 79): 86 beats/min
MAP (conscious dogs (beagles); edible oil + 2% DMSO, 90 min, preliminary value 111): 107 mmHg
SBP (conscious dogs (beagles); edible oil + 2% DMSO, 90 min, preliminary value 171): 173 mmHg
DBP (conscious dogs (beagles); edible oil + 2% DMSO, 120 min, preliminary value 66): 60 mmHg
HR (conscious dogs (beagles); edible oil + 2% DMSO, 120 min, preliminary value 79): 82 beats/min
MAP (conscious dogs (beagles); edible oil + 2% DMSO, 120 min, preliminary value 111): 109 mmHg
SBP (conscious dogs (beagles); edible oil + 2% DMSO, 120 min, preliminary value 171): 175 mmHg
DBP (conscious dogs (beagles); edible oil + 2% DMSO, 150 min, preliminary value 66): 63 mmHg
HR (conscious dogs (beagles); edible oil + 2% DMSO, 150 min, preliminary value 79): 82 beats/min
MAP (conscious dogs (beagles); edible oil + 2% DMSO, 150 min, preliminary value 111): 113 mmHg
SBP (conscious dogs (beagles); edible oil + 2% DMSO, 150 min, preliminary value 171): 179 mmHg
DBP (conscious dogs (beagles); edible oil + 2% DMSO, 180 min, preliminary value 66): 66 mmHg
HR (conscious dogs (beagles); edible oil + 2% DMSO, 180 min, preliminary value 79): 87 beats/min
MAP (conscious dogs (beagles); edible oil + 2% DMSO, 180 min, preliminary value 111): 114 mmHg
SBP (conscious dogs (beagles); edible oil + 2% DMSO, 180 min, preliminary value 171): 179 mmHg
DBP (conscious dogs (beagles); edible oil + 2% DMSO, 210 min, preliminary value 66): 68 mmHg
HR (conscious dogs (beagles); edible oil + 2% DMSO, 210 min, preliminary value 79): 86 beats/min
MAP (conscious dogs (beagles); edible oil + 2% DMSO, 210 min, preliminary value 111): 114 mmHg
SBP (conscious dogs (beagles); edible oil + 2% DMSO, 210 min, preliminary value 171): 174 mmHg
DBP (conscious dogs (beagles); edible oil + 2% DMSO, 240 min, preliminary value 66): 64 mmHg
HR (conscious dogs (beagles); edible oil + 2% DMSO, 240 min, preliminary value 79): 93 beats/min
MAP (conscious dogs (beagles); edible oil + 2% DMSO, 240 min, preliminary value 111): 109 mmHg
SBP (conscious dogs (beagles); edible oil + 2% DMSO, 240 min, preliminary value 171): 169 mmHg
DBP (conscious dogs (beagles); edible oil + 2% DMSO, 300 min, preliminary value 66): 65 mmHg
HR (conscious dogs (beagles); edible oil + 2% DMSO, 300 min, preliminary value 79): 92 beats/min
MAP (conscious dogs (beagles); edible oil + 2% DMSO, 300 min, preliminary value 111): 110 mmHg
SBP (conscious dogs (beagles); edible oil + 2% DMSO, 300 min, preliminary value 171): 169 mmHg
DBP (conscious dogs (beagles); edible oil + 2% DMSO, 360 min, preliminary value 66): 70 mmHg
HR (conscious dogs (beagles); edible oil + 2% DMSO, 360 min, preliminary value 79): 91 beats/min
MAP (conscious dogs (beagles); edible oil + 2% DMSO, 360 min, preliminary value 111): 115 mmHg
SBP (conscious dogs (beagles); edible oil + 2% DMSO, 360 min, preliminary value 171): 174 mmHg
HR (conscious dogs (beagles); edible oil + 2% DMSO, 1 ml/kg, 30 min, preliminary value 79, average n=5): 117 beats/min
DBP (conscious dogs (beagles); methyl cellulose 1% + 2% DMSO, 30 min, preliminary value 70): 65 mmHg
MAP (conscious dogs (beagles); methyl cellulose 1% + 2% DMSO, 30 min, preliminary value 114): 114 mmHg
SBP (conscious dogs (beagles); methyl cellulose 1% + 2% DMSO, 30 min, preliminary value 172): 179 mmHg
DBP (conscious dogs (beagles); methyl cellulose 1% + 2% DMSO, 60 min, preliminary value 70): 66 mmHg
HR (conscious dogs (beagles); methyl cellulose 1% + 2% DMSO, 60 min, preliminary value 83): 79 beats/min
MAP (conscious dogs (beagles); methyl cellulose 1% + 2% DMSO, 60 min, preliminary value 114): 114 mmHg
SBP (conscious dogs (beagles); methyl cellulose 1% + 2% DMSO, 60 min, preliminary value 172): 178 mmHg
DBP (conscious dogs (beagles); methyl cellulose 1% + 2% DMSO, 90 min, preliminary value 70): 63 mmHg
HR (conscious dogs (beagles); methyl cellulose 1% + 2% DMSO, 90 min, preliminary value 83): 83 beats/min
MAP (conscious dogs (beagles); methyl cellulose 1% + 2% DMSO, 90 min, preliminary value 114): 110 mmHg
SBP (conscious dogs (beagles); methyl cellulose 1% + 2% DMSO, 90 min, preliminary value 172): 172 mmHg
DBP (conscious dogs (beagles); methyl cellulose 1% + 2% DMSO, 120 min, preliminary value 70): 64 mmHg
HR (conscious dogs (beagles); methyl cellulose 1% + 2% DMSO, 120 min, preliminary value 83): 80 beats/min
MAP (conscious dogs (beagles); methyl cellulose 1% + 2% DMSO, 120 min, preliminary value 114): 111 mmHg
SBP (conscious dogs (beagles); methyl cellulose 1% + 2% DMSO, 120 min, preliminary value 172): 173 mmHg
DBP (conscious dogs (beagles); methyl cellulose 1% + 2% DMSO, 150 min, preliminary value 70): 64 mmHg
HR (conscious dogs (beagles); methyl cellulose 1% + 2% DMSO, 150 min, preliminary value 83): 81 beats/min
MAP (conscious dogs (beagles); methyl cellulose 1% + 2% DMSO, 150 min, preliminary value 114): 112 mmHg
SBP (conscious dogs (beagles); methyl cellulose 1% + 2% DMSO, 150 min, preliminary value 172): 175 mmHg
DBP (conscious dogs (beagles); methyl cellulose 1% + 2% DMSO, 180 min, preliminary value 70): 65 mmHg
HR (conscious dogs (beagles); methyl cellulose 1% + 2% DMSO, 180 min, preliminary value 83): 76 beats/min
MAP (conscious dogs (beagles); methyl cellulose 1% + 2% DMSO, 180 min, preliminary value 114): 114 mmHg
SBP (conscious dogs (beagles); methyl cellulose 1% + 2% DMSO, 180 min, preliminary value 172): 178 mmHg
DBP (conscious dogs (beagles); methyl cellulose 1% + 2% DMSO, 210 min, preliminary value 70): 63 mmHg
HR (conscious dogs (beagles); methyl cellulose 1% + 2% DMSO, 210 min, preliminary value 83): 84 beats/min
MAP (conscious dogs (beagles); methyl cellulose 1% + 2% DMSO, 210 min, preliminary value 114): 109 mmHg
SBP (conscious dogs (beagles); methyl cellulose 1% + 2% DMSO, 210 min, preliminary value 172): 169 mmHg
DBP (conscious dogs (beagles); methyl cellulose 1% + 2% DMSO, 240 min, preliminary value 70): 62 mmHg
HR (conscious dogs (beagles); methyl cellulose 1% + 2% DMSO, 240 min, preliminary value 83): 74 beats/min
MAP (conscious dogs (beagles); methyl cellulose 1% + 2% DMSO, 240 min, preliminary value 114): 108 mmHg
SBP (conscious dogs (beagles); methyl cellulose 1% + 2% DMSO, 240 min, preliminary value 172): 167 mmHg
DBP (conscious dogs (beagles); methyl cellulose 1% + 2% DMSO, 300 min, preliminary value 70): 62 mmHg
HR (conscious dogs (beagles); methyl cellulose 1% + 2% DMSO, 300 min, preliminary value 83): 77 beats/min
MAP (conscious dogs (beagles); methyl cellulose 1% + 2% DMSO, 300 min, preliminary value 114): 108 mmHg
SBP (conscious dogs (beagles); methyl cellulose 1% + 2% DMSO, 300 min, preliminary value 172): 169 mmHg
DBP (conscious dogs (beagles); methyl cellulose 1% + 2% DMSO, 360 min, preliminary value 70): 65 mmHg
HR (conscious dogs (beagles); methyl cellulose 1% + 2% DMSO, 360 min, preliminary value 83): 75 beats/min
MAP (conscious dogs (beagles); methyl cellulose 1% + 2% DMSO, 360 min, preliminary value 114): 110 mmHg
SBP (conscious dogs (beagles); methyl cellulose 1% + 2% DMSO, 360 min, preliminary value 172): 170 mmHg
HR (conscious dogs (beagles); methyl cellulose 1% + 2% DMSO, 1 ml/kg, 30 min, preliminary value 83, average n=5): 85 beats/min
IC50 (Basophilic granulocytes): 10 µg/mL (≈ 43.8 µM)
IC50 (PDE III): 80 µM
IC50 (T Lymphoblasts): 6.4 µg/mL (≈ 28 µM)
IC50 (Peripheral leucocytes): < 3 µg/mL
IC50 (Phagocytes (PMNs)): 27 µg/mL (≈ 118 µM)
IC50 (Lymphocytes [2]): 2.8 µg/mL (≈ 12.3 µM)
tolerability (mice): well tolerated
side effects (behaviour, body weight, histology, haematological and clinicochemical parameters) (rats; after 2 weeks, 40 mg/kg daily): not possible to determine any side effects
tolerability (rats; p.o. and i.p.): well tolerated
